# Test results: patent US8450479B2, “3-substituted-4-oxo-3,4-dihydro-imidazo[5,1-d][1,2,3,5-tetrazine-8-carboxylic acid amides and their use” (Pharminox Limited, priority 2007, dated 2013)
# Where “and” joins values, the source holds several entries; their conditions need not be identical. Identical values can stand only once. Like-named read-outs stand apart in the source and are kept apart here.
# What was measured:
# Format in all cases: cell-based
# Glioma SNB19V (MGMT−) = assay: Clonogenic survival assay (Table 14, assay not named there)
# Experimental: (§1) A clonogenic assay, which measures tumour cell survival and subsequent proliferative ability following drug exposure was used to verify that the cells remaining metabolically active following treatment with TMZ and new derivatives. See, e.g., Brown, J. M., et al., 1999, “Apoptosis, p53, and tumor cell sensitivity to anticancer agents”, Cancer Research, Vol. 59, No. 7, pp. 1391-1399.
# (§2) Exponentially growing cells were seeded in triplicate at a density of 200 cells/well in 6 well plate and allowed to attach overnight and then exposed to increasing concentration of TMZ and test compounds (0, 5, 10, 100, 500, 1000 μM). After 18 hours, the plates were changed to drug free media and left to grow in the 37° C., 5% CO2 incubator. After 14 days, the plates were rinsed in PBS and fixed with pre-chilled methanol in room temperature for 20 minutes, and then stained with 0.5% methylene blue in 1:1 methanol/H2O (v/v) for 10 minutes and thoroughly washed in distilled water and air dried. Cell colonies containing >30 cells were counted. Growth inhibition by TMZ and test compounds was estimated by dividing the mean number of colonies under drug treatment by the mean number of colonies without drug treatment.
# Glioma SNB19M (MGMT+) = assay: as above
# Experimental: as §1, §2
# Colon DLD1 = assay: MTT assay for 7-day toxicity assay; details: Homo sapiens
# Outline: (§3)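 Cells seeded at 400 cells/well, attached overnight, then exposed to compound at 0.5–1000 μM final for 7 days at 37 °C, 5% CO2. Viability read by MTT, with a day-0 plate fixed at drug addition as reference.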
# [1] = test system: Melanoma SKMEL-28 (MMR proficient); assay: MTT assay for 7-day toxicity assay
# Outline: as §3
# [2] = test system: Glioma U373VR (MGMT low) (TMZ resistant); assay: MTT assay for 7-day toxicity assay
# [3] = test system: Normal Human Fetal Lung Fibroblast MRC-5; assay: MTT assay for 7-day toxicity assay
# Outline: as §3
# [4] = test system: Colon HT29 (MMR proficient); assay: MTT assay for 7-day toxicity assay
# Outline: as §3
# [5] = test system: Colon HCT116 (MMR mutated); assay: MTT assay for 7-day toxicity assay
# Outline: as §3
# [6] = test system: Breast MCF-7 (MMR proficient); assay: MTT assay for 7-day toxicity assay
# Outline: as §3
compound,measurement,setting,value
"Cn1nnc2c(C(N)=O)ncn2c1=O [TMZ, 3-Methyl-4-oxo-3,4-dihydro-imidazo[5,1-d][1,2,3,5]tetrazine-8-carboxylic acid amide, reference compound]",GI50,Glioma SNB19V (MGMT−),32.2 µM
same,GI50,Glioma SNB19M (MGMT+),875 µM
same,GI50,Glioma SNB19M (MGMT+); listed as Temozolomide,834 µM
same,GI50,"Colon DLD1; DLD-1, 168 h, Colon DLD1, 7-day MTT, single determinations, read-out: GI50",435 µM
same,GI50,"Colon DLD1; DLD-1, Colon DLD1, read-out: GI50",435 µM
same,GI50,"Colon DLD1; DLD-1, Colon DLD1, average of Table 1, read-out: TMZ GI50 Average",435 µM
same,GI50,"[1]; Homo sapiens, SK-MEL-28, 168 h, Melanoma SKMEL-28 (MMR proficient), 7-day MTT, single determinations, read-out: GI50",419 µM
same,GI50,"[1]; Homo sapiens, SK-MEL-28, Melanoma SKMEL-28 (MMR proficient), average of Table 1, read-out: TMZ GI50 Average",431 µM
same,GI50,"[1]; Homo sapiens, SK-MEL-28, Melanoma SKMEL-28 (MMR proficient), read-out: GI50",431 µM
same,GI50,"[1]; Melanoma SKMEL-28 (MMR proficient), 7-day MTT, single determinations, read-out: GI50",443 µM
same,GI50,"[2]; 168 h, Glioma U373VR (MGMT low, TMZ resistant), 7-day MTT, single determinations, read-out: GI50",316 µM
same,GI50,"[2]; Glioma U373VR (MGMT low) (TMZ resistant), read-out: GI50",289 µM
same,GI50,"[2]; Glioma U373VR (MGMT low, TMZ resistant), 7-day MTT, single determinations, read-out: GI50",293 µM and 234 µM and 328 µM and 299 µM and 258 µM and 326 µM and 257 µM
same,GI50,"[2]; Glioma U373VR (MGMT low, TMZ resistant), average of Table 1, read-out: TMZ GI50 Average",289 µM
same,GI50,"[3]; Homo sapiens, MRC5, 168 h, Normal Human Fetal Lung Fibroblast MRC-5, 7-day MTT, single determinations, read-out: GI50",441 µM
same,GI50,"[3]; Homo sapiens, MRC5, Normal Human Fetal Lung Fibroblast MRC-5, average of Table 1, read-out: TMZ GI50 Average",449 µM
same,GI50,"[3]; Homo sapiens, MRC5, Normal Human Fetal Lung Fibroblast MRC-5, read-out: GI50",449 µM
same,GI50,"[3]; Normal Human Fetal Lung Fibroblast MRC-5, 7-day MTT, single determinations, read-out: GI50",458 µM
same,GI50,"[4]; Colon HT29 (MMR proficient), 7-day MTT, single determinations, read-out: GI50",578 µM
same,GI50,"[4]; Homo sapiens, HT-29, 168 h, Colon HT29 (MMR proficient), 7-day MTT, single determinations, read-out: GI50",702 µM
same,GI50,"[4]; Homo sapiens, HT-29, Colon HT29 (MMR proficient), average of Table 1, read-out: TMZ GI50 Average",640 µM
same,GI50,"[4]; Homo sapiens, HT-29, Colon HT29 (MMR proficient), read-out: GI50",640 µM
same,GI50,"[5]; Colon HCT116 (MMR mutated), 7-day MTT, single determinations, read-out: GI50",570 µM and 594 µM
same,GI50,"[5]; Homo sapiens, HCT-116, 168 h, Colon HCT116 (MMR mutated), 7-day MTT, single determinations, read-out: GI50",607 µM
same,GI50,"[5]; Homo sapiens, HCT-116, Colon HCT116 (MMR mutated), average of Table 1, read-out: TMZ GI50 Average",591 µM
same,GI50,"[5]; Homo sapiens, HCT-116, Colon HCT116 (MMR mutated), read-out: GI50",591 µM
same,GI50,"[6]; Breast MCF-7 (MMR proficient), 7-day MTT, single determinations",424 µM
same,GI50,"[6]; Homo sapiens, MCF7, 168 h, Breast MCF-7 (MMR proficient), 7-day MTT, single determinations",342 µM
same,GI50,"[6]; Homo sapiens, MCF7, read-out: TMZ GI50 Average, Breast MCF-7 (MMR proficient), average of Table 1",383 µM
same,GI50,"[6]; Homo sapiens, MCF7, Breast MCF-7 (MMR proficient)",383 µM
